The target in one data set is T1, activated ROCK-II (Rattus norvegicus, UniProt Q62868).
T1 construct: purchased Upstate Biotechnology 14-338
As to the kind of experiment: Test for Evaluation of Rho Kinase Inhibitory Activity. In kind it is biochemical. The conditions noted are these: Ki=IC50/(1+S/Km); [γ-32P]ATP, S6 kinase substrate peptide, 30° C. for 15 minutes. On the procedure: In order to find the usefulness of the present invention compound, a Rho kinase inhibitory activity of the present invention compound was evaluated and studied. The details of the evaluation and study will be illustrated in the “section of Pharmacological Test (Test for Evaluation of Rho Kinase Inhibitory Activity)” in the Examples which will be mentioned later. The evaluation and study of the Rho kinase inhibitory activity of the present invention compound were carried out in accordance with the method described in J. Biol. Chem., 274, 32418 (1999) and the method described in the instruction manual for use attached to the commercially available activated ROCK-II [Upstate Biotechnology, Catalog No. 14-338 (5 units/50 μl)].
In order to study the usefulness of the present invention compound as a Rho kinase inhibitor, in accordance with the method described in J. Biol. Chem., 274, 32418 (1999) and the method described in the instruction manual for use attached to the commercially available activated ROCK-II [Upstate Biotechnology, Catalog No. 14-338 (5 units/50 μl)], the Rho kinase inhibitory activity of the present invention compound was evaluated and studied. As a test compound, Example compound 2 was used. […]
7) The filter paper is dipped in ethanol and then dried. Thereafter, the amount of phosphorylated substrate is measured using a liquid scintillation counter. […]

The test system of another data set is cynomolgus monkeys. As to the kind of experiment: Test for Measurement of Intraocular Pressure-Reducing Activity. It is filed as in vivo. The conditions noted are these: male cynomolgus monkeys, 0.1% test compound solution instilled into one eye, measured at 2, 4 and 6 hours after instillation, versus vehicle control. From the text: Further, in order to verify the application of the present invention compound to a specific disease associated with Rho kinase, the intraocular pressure-reducing activity of the present invention compound was also studied. The details of the study will be illustrated in the “section of Pharmacological Test (Test for Measurement of Intraocular Pressure-Reducing Activity)” in the Examples which will be mentioned later.
In order to study the usefulness of the present invention compound as a therapeutic agent for glaucoma, an intraocular pressure-reducing effect in the case where the present invention compound was administered to cynomolgus monkeys (sex: male; one group consisting of 4 to 5 monkeys) was evaluated and studied. As a test compound, Example compound 2 (hereinafter referred to as the test compound) was used. […]
2) The intraocular pressure was measured immediately before administration of the test compound solution, which was defined as the initial intraocular pressure. […]
4) At 2, 4 and 6 hours after instillation of the test compound solution, one drop of a 0.4% oxybuprocaine hydrochloride eye drop was instilled into both eyes to achieve local anesthesia and then the intraocular pressure was measured. Measurement of the intraocular pressure for each time was carried out three times and a mean value thereof was calculated. […]

Three compounds from US8227480B2, “Indazole derivative having spiro ring structure in side chain” (Ube Industries, Ltd., priority 2006, dated 2012) can be followed below.

Each structure is given as a SMILES string. Counter-ions that a name gives are not always drawn.

T1 sequence (Q62868 11-552 limits assumed): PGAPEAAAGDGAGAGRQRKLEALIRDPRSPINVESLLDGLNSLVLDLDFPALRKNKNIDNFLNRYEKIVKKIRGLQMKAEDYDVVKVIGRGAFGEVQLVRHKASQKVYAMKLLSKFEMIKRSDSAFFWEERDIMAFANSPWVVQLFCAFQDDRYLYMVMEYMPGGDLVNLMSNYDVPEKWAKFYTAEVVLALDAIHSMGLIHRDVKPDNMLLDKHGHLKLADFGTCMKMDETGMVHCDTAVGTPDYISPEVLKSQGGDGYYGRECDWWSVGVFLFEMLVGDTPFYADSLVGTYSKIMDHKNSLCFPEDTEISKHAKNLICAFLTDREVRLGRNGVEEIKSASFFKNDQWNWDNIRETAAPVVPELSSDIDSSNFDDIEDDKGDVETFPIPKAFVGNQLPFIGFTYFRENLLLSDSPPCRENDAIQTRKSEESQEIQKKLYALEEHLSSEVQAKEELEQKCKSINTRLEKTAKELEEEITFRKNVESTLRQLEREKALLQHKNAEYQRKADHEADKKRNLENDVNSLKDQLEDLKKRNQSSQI

As a reminder, the melting point is the temperature, or range, at which the solid turns liquid. Take `NC1(c2ccc(-c3ccc4[nH]ncc4c3C3CC3)nc2)CC2(CC2)C1` (as salt: hydrochloride) [Example compound 2, 5-{5-(5-amino-spiro[2,3]hex-5-yl)pyridin-2-yl}}-4-cyclopropyl-1H-indazole Dihydrochloride]: the melting point is > 300 °C (dec.).

`CC(C)(C)OC(=O)NC1(c2ccc(-c3ccc4c(cnn4C4CCCCO4)c3C3CC3)nc2)CC2(CC2)C1` (stereo not shown) [Example compound 1] showed a melting point of 199 to 202 °C.

By Ki is commonly meant a dissociation constant, usually derived from enzyme kinetics or from competition with a known ligand. Read a low Ki as a stronger hold on the target. Turning to `NC1(c2ccc(-c3ccc4[nH]ncc4c3C3CC3)nc2)CC2(CC2)C1` [Example compound 2, 5-{5-(5-amino-spiro[2,3]hex-5-yl)pyridin-2-yl}}-4-cyclopropyl-1H-indazole Dihydrochloride], at activated ROCK-II, the Ki came to 3.5 nM. Also, in the data set on cynomolgus monkeys, the “intraocular pressure-reducing activity (change from the initial intraocular pressure, FIG. 1)” value was “excellent intraocular pressure-reducing activity”.
